Measurements from PubChem BioAssay (NCI).
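Following 48 hours of exposure in 96-well plates, responses at five concentrations were used to interpolate endpoints linearly. GI50 = concentration required for 50% inhibition of growth. TGI is the concentration that stops growth completely.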

How the values were obtained:
Experiment in all cases: NCI tumour cell line growth inhibition, 48 h
[1] = tested on: DU-145 prostate
[2] = tested on: MDA-MB-231 breast
[3] = tested on: U251 CNS
[4] = tested on: SK-MEL-2 melanoma
[5] = tested on: HCT-116 colon
[6] = tested on: HOP-62 NSCLC
[7] = tested on: SF-539 CNS
[8] = tested on: CAKI-1 renal
[9] = tested on: SNB-75 CNS
[10] = tested on: HOP-92 NSCLC

Row | Compound | GI50 [1] | TGI [1] | GI50 [2] | TGI [2] | GI50 [3] | TGI [3] | GI50 [4] | TGI [4] | GI50 [5] | TGI [5] | GI50 [6] | TGI [6] | GI50 [7] | TGI [7] | GI50 [8] | TGI [8] | GI50 [9] | TGI [9] | GI50 [10] | TGI [10]
1 | COc1ccc(-n2sc(=O)n(Cc3ccc(COC(=O)C(C)c4ccc(CC(C)C)cc4)cc3)c2=O)cc1 (centres undefined) | 1.85 µM | 6.34 µM | 1.86 µM | 7.11 µM | 6.83 µM | 14.5 µM | 8.01 µM | 17 µM | 0.979 µM | 2.08 µM | 8.84 µM | 21.1 µM | 5.12 µM | 10.9 µM | 1.36 µM | 5.37 µM | 5.95 µM | 12.2 µM | 1.01 µM | 3.14 µM
2 | CN(NC(=O)CC(=O)NN(C)C(=S)c1ccc(Cl)cc1)C(=S)c1ccc(Cl)cc1 | 21.9 µM | > 100 µM | 19.8 µM | 65.2 µM | 21.3 µM | > 100 µM | 22.7 µM | 81.8 µM | 10.7 µM | > 100 µM | 20.5 µM | 70.8 µM | 27.6 µM | > 100 µM | 13.6 µM | > 100 µM | 22.5 µM | > 100 µM |  | 9.05 µM
3 | CCCCCc1c(C)[nH]c(/C=c2\[nH]/c(=C3/C=c4ccccc4=N3)cc2OC)c1C | 0.0911 µM | 16.4 µM | 0.0266 µM | 0.232 µM | 0.067 µM | 0.627 µM | 0.0394 µM | 0.193 µM | 0.028 µM | 1.07 µM | 0.0767 µM | 0.438 µM | 0.0604 µM | 0.659 µM | 0.0425 µM | 1.56 µM | 0.107 µM | 0.583 µM | 0.0236 µM | 0.203 µM
4 | CCCCCCC1N=C(N)N=C(N)N1c1ccc(Cl)cc1 (centres undefined) | 12.1 µM | > 100 µM | 11.2 µM | 25.9 µM | 2.53 µM | 14.7 µM | 11.7 µM | 26.3 µM | 3.2 µM | 15.8 µM | 6.93 µM | 39.6 µM | 4.16 µM | 18 µM | > 100 µM | > 100 µM | 6.31 µM | 33.5 µM | 2.62 µM | 22.1 µM
5 | Cc1cccnc1CNC1CC(NCc2ncccc2C)CC(NCc2ncccc2C)C1 (centres undefined) | 1.88 µM | 3.58 µM | 1.6 µM | 3.56 µM | 1.81 µM | 3.36 µM | 3.9 µM | > 100 µM | 1.63 µM | 3.24 µM | 1.96 µM | 4.52 µM | 2.92 µM | 9.38 µM | 4.84 µM | 21.8 µM | 2.21 µM | 4.32 µM | 1.1 µM | 2.3 µM
6 | CCc1ccccc1-n1c(N)c(C#N)c(-c2ccc(OC)c(OC)c2)c(C#N)c1=O | 29.6 µM | > 100 µM | 17.1 µM | 35.8 µM | 16.1 µM | 29.8 µM | 25.8 µM | 80.6 µM | 17 µM | 31.1 µM | 17.1 µM | 34.3 µM | 15 µM | 28.3 µM | > 100 µM | > 100 µM | 17.8 µM | 32.1 µM | 0.283 µM | 29 µM
